Counter-ions that a name gives are not always drawn. The source made the active and inactive calls.
Tests used:
[1] = target: Photoreceptor-specific nuclear receptor (Homo sapiens, UniProt Q9Y5X4); format: functional, cell-based;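 further: CHO-S cells with Gal4-NCOR and VP16-NR2E3 two-hybrid luciferase reporter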
[2] = target: T1, Nuclear receptor subfamily 0 group B member 1 (Homo sapiens, UniProt P51843); format: functional, cell-based;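 further: HEK293T cells transfected with SF-1 and DAX-1 plus StAR promoter luciferase reporter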
T1 sequence (P51843 whole entry): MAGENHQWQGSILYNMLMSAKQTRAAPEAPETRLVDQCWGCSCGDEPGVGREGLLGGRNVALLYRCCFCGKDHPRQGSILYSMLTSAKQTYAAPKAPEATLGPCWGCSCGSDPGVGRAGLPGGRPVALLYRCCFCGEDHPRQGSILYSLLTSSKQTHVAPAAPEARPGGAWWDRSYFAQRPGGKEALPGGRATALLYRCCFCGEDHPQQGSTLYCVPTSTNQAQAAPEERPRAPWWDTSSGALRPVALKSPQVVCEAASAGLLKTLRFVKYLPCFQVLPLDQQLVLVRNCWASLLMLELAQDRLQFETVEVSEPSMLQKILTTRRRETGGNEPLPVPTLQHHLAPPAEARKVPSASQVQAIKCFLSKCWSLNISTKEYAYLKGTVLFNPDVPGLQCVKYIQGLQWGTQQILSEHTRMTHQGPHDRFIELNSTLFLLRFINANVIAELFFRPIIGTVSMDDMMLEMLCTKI

cells [3] = format: functional, cell-based
[4] = HEK293T cytotoxicity, dose response, cytotoxicity control for miR-122 modulator project, cell-based, inhibitor set, cherry-pick, set 2 (AID 720697); format: functional
[5] = miR-122 activators in hepatoma reporter cells, dose response, cell-based, Huh7 psiCHECK-miR122, Renilla luciferase, cherry-picked (AID 651956); format: functional;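 further: huh7 hepatoma cells stably carrying a psiCHECK-2 miR-122 sensor plasmid; renilla luciferase signal reporting endogenous miR-122 activity after 48 h compound exposure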
[6] = HEK293T cytotoxicity, dose response, cytotoxicity control for miR-122 modulator project, cell-based, activator set, cherry-pick (AID 720690); format: functional;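 further: HEK293T human cells scored for general mammalian cytotoxicity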
[7] = control 3'UTR Renilla luciferase suppression, dose response, counter-screen for Shn3 inhibitor project, cell-based, Clone20-Shn3RL, cherry-picked (AID 624133); format: functional
[8] = Shn3 3'UTR reporter inhibitors, dose response, cell-based, Clone20 osteoblasts, firefly luciferase, cherry-picked (AID 624132); format: functional;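 further: firefly luciferase luminescence from reporter carrying the Shn3 3'UTR in osteoblasts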
[9] = HepG2 cell cytotoxicity, dose response, cytotoxicity control for Shn3 inhibitor project, CellTiter-Glo, cherry-picked (AID 624134); format: functional, cell-based
[10] = target: T2, Sentrin-specific protease 6 (Homo sapiens, UniProt Q9GZR1); format: functional;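 further: Luminescence-based dose-response confirmatory assay of SENP6 inhibition, following up an ultra-high-throughput screen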
T2 sequence (Q9GZR1 whole entry): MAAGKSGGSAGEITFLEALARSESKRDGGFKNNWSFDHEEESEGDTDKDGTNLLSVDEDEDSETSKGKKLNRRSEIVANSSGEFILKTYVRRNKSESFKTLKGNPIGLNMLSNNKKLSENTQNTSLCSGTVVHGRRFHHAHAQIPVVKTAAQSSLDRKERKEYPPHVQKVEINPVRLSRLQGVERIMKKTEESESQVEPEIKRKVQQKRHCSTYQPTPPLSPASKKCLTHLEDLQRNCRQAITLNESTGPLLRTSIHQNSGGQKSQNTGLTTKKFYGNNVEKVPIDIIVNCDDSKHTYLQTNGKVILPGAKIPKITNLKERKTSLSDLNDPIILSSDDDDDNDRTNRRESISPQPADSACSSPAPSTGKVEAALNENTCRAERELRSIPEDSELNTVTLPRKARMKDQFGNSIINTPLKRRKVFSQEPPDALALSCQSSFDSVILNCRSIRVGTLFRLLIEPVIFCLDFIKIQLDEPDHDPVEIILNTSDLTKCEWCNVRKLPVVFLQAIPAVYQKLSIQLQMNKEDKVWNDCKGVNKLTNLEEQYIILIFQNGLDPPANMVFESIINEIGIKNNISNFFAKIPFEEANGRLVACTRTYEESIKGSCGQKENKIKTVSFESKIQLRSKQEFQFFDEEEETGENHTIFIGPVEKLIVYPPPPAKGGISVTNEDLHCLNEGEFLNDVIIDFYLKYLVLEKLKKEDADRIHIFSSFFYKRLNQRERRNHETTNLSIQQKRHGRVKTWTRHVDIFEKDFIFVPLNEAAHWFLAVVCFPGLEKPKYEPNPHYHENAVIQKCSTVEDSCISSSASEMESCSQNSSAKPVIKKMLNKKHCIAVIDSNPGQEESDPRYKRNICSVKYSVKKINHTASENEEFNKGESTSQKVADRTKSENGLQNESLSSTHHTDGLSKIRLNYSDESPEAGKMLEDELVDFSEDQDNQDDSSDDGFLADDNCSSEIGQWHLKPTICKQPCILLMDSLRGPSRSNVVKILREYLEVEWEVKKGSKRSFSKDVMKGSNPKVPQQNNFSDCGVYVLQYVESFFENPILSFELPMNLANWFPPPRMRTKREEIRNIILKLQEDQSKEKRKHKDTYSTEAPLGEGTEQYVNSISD

cells [11] = format: functional
[12] = target: T3, Sentrin-specific protease 7 (Homo sapiens, UniProt Q9BQF6); format: functional;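 further: Luminescence-based dose-response confirmation of ultra-high-throughput screening hits, measuring inhibition of SENP7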
T3 sequence (Q9BQF6 whole entry): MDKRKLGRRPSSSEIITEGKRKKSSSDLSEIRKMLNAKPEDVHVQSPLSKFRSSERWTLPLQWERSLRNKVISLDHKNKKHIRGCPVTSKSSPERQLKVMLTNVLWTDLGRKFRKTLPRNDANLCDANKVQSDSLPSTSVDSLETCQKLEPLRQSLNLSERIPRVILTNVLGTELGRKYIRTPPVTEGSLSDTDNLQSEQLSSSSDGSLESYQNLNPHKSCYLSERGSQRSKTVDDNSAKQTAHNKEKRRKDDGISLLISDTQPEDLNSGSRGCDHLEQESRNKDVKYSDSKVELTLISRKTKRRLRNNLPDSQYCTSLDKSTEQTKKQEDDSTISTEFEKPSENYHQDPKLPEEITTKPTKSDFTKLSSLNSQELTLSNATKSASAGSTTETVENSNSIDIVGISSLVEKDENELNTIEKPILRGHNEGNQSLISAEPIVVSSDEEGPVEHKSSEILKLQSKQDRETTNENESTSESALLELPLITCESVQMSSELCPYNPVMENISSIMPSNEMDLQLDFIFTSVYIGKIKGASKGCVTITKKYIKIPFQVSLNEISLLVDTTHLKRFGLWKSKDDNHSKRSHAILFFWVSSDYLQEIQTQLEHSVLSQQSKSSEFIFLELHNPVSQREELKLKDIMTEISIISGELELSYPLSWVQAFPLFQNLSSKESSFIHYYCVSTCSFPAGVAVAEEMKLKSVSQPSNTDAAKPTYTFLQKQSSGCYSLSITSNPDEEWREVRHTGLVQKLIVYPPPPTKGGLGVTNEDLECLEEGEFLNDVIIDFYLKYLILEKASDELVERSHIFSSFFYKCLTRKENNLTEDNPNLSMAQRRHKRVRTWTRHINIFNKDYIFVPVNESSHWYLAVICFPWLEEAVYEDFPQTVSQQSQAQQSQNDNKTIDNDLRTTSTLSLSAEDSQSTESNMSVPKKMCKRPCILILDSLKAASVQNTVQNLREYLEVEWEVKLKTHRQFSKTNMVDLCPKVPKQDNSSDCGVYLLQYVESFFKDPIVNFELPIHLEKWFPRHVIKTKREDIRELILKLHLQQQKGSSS

Caspase-3 = target: T4, Caspase-3 (Homo sapiens, UniProt P42574); format: functional;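 further: Dose-response selectivity test against caspase-3 for candidate inhibitors of sentrin-specific proteases (SENPs)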
T4 sequence (P42574 whole entry): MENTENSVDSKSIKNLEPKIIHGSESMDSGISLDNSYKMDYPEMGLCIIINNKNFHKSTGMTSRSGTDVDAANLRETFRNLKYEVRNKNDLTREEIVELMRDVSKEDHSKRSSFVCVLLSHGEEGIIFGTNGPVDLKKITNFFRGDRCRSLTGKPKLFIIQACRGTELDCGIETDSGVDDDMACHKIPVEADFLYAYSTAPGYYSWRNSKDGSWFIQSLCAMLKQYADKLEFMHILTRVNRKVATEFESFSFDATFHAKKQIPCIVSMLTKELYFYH

[13] = target: T5, Sentrin-specific protease 8 (Homo sapiens, UniProt Q96LD8); format: functional
T5 sequence (Q96LD8 whole entry): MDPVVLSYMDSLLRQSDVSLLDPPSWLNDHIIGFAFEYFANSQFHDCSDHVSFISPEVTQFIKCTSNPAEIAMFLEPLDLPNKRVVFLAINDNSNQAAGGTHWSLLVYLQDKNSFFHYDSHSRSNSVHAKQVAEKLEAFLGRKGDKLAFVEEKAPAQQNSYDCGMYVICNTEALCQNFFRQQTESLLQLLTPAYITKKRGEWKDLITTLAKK

[14] = target: Dual specificity tyrosine-phosphorylation-regulated kinase 1A (Rattus norvegicus, UniProt Q63470); format: biochemical, Homo sapiens
[15] = target: T5, Sentrin-specific protease 8; format: functional; remark: listed apart in the source
[16] = target: T5, Sentrin-specific protease 8; format: functional; remark: listed apart in the source
Beta-galactosidase = Beta-galactosidase (Escherichia coli, UniProt Q8VNN2); test: Dose response counterscreen for EBI2 assay utilizing the enzyme, b-galactosidase.; format: functional
[17] = target: FAD-linked sulfhydryl oxidase ALR (Homo sapiens, UniProt P55789); test: inhibitors of human ALR sulfhydryl oxidase, dose response, biochemical, H2O2 detection, luminescence, cherry-pick (AID 493248)
Paired box protein Pax-8 = Paired box protein Pax-8 (Homo sapiens, UniProt Q06710); test: inhibitors of PAX8-driven TPO luciferase reporter, dose response, RMG-I cells, cherry-pick (AID 687027); format: functional, cell-based;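 further: luciferase reporter driven by Pax8 target thyroperoxidase promoter measured by SteadyGlo luminescence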
Mu-type opioid receptor = Mu-type opioid receptor (Homo sapiens, UniProt P35372); format: functional, cell-based;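 further: U2OS cells with beta-arrestin recruitment to OPRM1 by beta-gal complementation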
INS1 = test: beta cell apoptosis inhibitors, cytokine rescue, dose response, luminescence, retest (AID 449756); format: functional, cell-based; settings: Rattus norvegicus;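 further: cell death triggered by IL-1 beta plus TNF-alpha plus IFN-gamma mixture; protective hits raise ATP signal compared with cytokine alone wells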

Sequence of Photoreceptor-specific nuclear receptor (Q9Y5X4 whole entry, the tested form may be a part): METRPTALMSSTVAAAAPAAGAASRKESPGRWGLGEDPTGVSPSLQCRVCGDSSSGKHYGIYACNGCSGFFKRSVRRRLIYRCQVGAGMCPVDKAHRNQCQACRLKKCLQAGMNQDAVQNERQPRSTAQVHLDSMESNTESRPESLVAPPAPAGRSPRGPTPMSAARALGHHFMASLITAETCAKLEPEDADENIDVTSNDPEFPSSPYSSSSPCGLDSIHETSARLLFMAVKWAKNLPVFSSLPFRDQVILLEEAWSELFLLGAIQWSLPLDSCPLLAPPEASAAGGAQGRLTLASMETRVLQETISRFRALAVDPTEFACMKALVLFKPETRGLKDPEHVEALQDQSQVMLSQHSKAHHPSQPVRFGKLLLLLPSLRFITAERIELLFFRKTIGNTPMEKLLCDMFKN
Sequence of Beta-galactosidase (Q8VNN2 whole entry): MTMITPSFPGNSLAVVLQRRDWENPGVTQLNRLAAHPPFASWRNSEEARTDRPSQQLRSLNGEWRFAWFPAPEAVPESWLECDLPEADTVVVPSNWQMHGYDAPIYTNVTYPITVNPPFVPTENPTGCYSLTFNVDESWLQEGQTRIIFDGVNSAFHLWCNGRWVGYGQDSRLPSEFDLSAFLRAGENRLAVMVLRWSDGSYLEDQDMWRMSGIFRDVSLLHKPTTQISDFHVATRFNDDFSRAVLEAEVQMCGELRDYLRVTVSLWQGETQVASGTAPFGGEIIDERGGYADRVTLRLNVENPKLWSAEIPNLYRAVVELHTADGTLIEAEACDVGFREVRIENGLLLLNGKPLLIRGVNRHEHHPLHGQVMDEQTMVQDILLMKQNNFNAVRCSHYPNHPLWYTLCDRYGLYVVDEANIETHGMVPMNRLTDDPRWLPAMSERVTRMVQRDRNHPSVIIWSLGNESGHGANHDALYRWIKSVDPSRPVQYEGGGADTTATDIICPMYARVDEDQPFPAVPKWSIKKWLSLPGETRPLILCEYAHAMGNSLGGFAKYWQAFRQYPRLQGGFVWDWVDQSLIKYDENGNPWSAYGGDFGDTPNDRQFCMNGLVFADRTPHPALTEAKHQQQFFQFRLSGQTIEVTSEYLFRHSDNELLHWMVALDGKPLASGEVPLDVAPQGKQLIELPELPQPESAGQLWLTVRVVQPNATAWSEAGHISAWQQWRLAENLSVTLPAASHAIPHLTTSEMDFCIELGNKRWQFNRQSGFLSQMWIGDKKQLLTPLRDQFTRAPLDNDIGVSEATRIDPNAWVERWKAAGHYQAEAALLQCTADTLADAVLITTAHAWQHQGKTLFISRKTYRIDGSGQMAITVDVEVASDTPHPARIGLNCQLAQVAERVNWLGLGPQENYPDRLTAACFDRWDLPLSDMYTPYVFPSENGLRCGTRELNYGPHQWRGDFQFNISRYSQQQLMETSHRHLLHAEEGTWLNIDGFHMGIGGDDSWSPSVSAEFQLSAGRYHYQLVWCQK
Sequence of Mu-type opioid receptor (P35372 whole entry): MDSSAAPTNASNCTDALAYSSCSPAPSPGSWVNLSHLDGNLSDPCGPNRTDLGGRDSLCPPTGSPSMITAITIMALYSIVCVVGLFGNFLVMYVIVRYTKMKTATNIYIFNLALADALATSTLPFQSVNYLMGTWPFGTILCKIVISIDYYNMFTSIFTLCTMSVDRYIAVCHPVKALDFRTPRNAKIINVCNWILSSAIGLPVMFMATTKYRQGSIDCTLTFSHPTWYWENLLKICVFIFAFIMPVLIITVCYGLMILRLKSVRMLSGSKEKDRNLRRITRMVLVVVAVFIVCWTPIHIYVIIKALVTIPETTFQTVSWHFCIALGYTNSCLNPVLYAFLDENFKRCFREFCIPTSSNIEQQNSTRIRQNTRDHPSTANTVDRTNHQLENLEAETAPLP
Sequence of Paired box protein Pax-8 (Q06710 whole entry): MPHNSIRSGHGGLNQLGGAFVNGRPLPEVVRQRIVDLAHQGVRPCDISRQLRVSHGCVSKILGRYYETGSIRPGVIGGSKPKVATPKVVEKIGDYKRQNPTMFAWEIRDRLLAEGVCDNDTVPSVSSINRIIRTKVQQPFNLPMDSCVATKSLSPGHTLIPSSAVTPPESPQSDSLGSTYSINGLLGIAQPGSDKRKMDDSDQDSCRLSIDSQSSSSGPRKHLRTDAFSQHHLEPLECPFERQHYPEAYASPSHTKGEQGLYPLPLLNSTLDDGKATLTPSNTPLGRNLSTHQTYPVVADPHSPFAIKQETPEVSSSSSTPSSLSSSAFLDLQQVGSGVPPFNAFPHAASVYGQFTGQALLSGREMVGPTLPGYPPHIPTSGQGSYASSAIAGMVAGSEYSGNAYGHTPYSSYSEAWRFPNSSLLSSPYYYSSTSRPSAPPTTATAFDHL
Sequence of FAD-linked sulfhydryl oxidase ALR (P55789 whole entry): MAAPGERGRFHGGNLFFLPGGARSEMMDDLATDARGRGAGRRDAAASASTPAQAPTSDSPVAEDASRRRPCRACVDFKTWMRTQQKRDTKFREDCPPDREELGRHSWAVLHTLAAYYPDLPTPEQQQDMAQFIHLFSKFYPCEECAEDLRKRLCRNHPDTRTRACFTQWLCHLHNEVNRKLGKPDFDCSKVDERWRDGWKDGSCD

CCNc1nc2c(c(=O)n(C)c(=O)n2C)n1Cc1ccc(Cl)cc1
IC50 [1]: 14.7 µM (inactive)

CCN(C(=O)c1cc2c(=O)n3ccccc3nc2n1C)C1CCCCC1
IC50 [2]: > 67.5 µM (inactive) | IC50 (cells [3]): > 67.5 µM (inactive)

COc1ccc(/C(C)=N/Nc2nccnc2Cl)cc1
IC50 [2]: > 67.6 µM (inactive) | IC50 (cells [3]): > 67.6 µM (inactive)

O=S(=O)(Nc1nccs1)c1ccc(NS(=O)(=O)c2cccs2)cc1
AC50 [4]: 5.42 µM (active) | AC50 [5]: 20.1 µM (active)

C/C=C/c1ccc([C@@H]2[C@H](CO)N[C@H]2CN(CC(C)C)C(=O)c2ccccn2)cc1
AC50 [6]: 23.5 µM (active)

COc1ccc(C(=O)/C=C/C(=O)N(CC(=O)NCCC(C)C)Cc2cccs2)c(O)c1
AC50 [7]: 13.2 µM (active) | AC50 [8]: 3.49 µM (active) | AC50 [9]: 51.7 µM (active)

CC1Cc2cc(/C=C3/SC(=S)NC3=O)ccc2O1 (stereo not given)
IC50 [10]: 8.72 µM (active) | IC50 (cells [11]): 39.3 µM (active) | IC50 [12]: 9.86 µM (active) | IC50 (Caspase-3): 16.9 µM (active) | IC50 [13]: 39.1 µM (active) | AC50 [14]: 0.308 µM (active)

Cc1cc(C)cc(NC(=O)CCc2nc3sc4c(c3c(=O)[nH]2)CCCC4)c1
IC50 [1]: 0.277 µM (active)

CCN1CCC2(CC1)N=C(c1ccc(F)cc1)C(=S)N2C(=O)c1ccc(C)cc1
IC50 [15]: > 100 µM (inactive) | IC50 [16]: 15.3 µM (active)

C[C@@H]1CN([C@H](C)CO)C(=O)c2cc(NC(=O)Nc3ccc(C(F)(F)F)cc3)ccc2O[C@@H]1CN(C)CC1CCCCC1
AC50 [4]: 10.2 µM (active) | AC50 [5]: 32.8 µM (active)

CSc1ccc(/C=C/C(=O)c2ccc(NC(=O)Cc3ccccc3)cc2)cc1
IC50 (Beta-galactosidase): > 80 µM (inactive)

COc1cc(-c2nc3cc(C)ccn3c2NC2CCCCC2)ccc1-c1ccc(C(C)=O)cc1
IC50 (Beta-galactosidase): 118 µM (inactive)

Cc1csc(NC(=O)Cc2nn(C)c(=O)c3ccccc23)n1
AC50 [7]: 5.18 µM (active) | AC50 [8]: 6.82 µM (active) | AC50 [9]: 46.5 µM (active)

O=C(Nc1ccc(C(=O)N2CCCCC2)cc1)C1=CSCCO1
IC50 [2]: > 67.6 µM (inactive) | IC50 (cells [3]): > 67.6 µM (inactive)

O=C(Nc1ccc(N2CCN(C(=O)c3ccccc3)CC2)cc1)c1ccc2c(c1)OCO2
IC50 [1]: 13.3 µM (inactive)

Cc1ccc(/C=N/Nc2ccc3ccccc3n2)o1
AC50 [17]: 5.31 µM (active) | IC50 [2]: > 67.5 µM (inactive) | IC50 (cells [3]): > 67.5 µM (inactive)

CN(Cc1ccccc1)C(=O)COC(=O)c1ccccc1Nc1ccccc1
AC50 [4]: 8.73 µM (active)

O=C(N/N=C/c1ccc([N+](=O)[O-])o1)c1ccncc1
IC50 [15]: 39.9 µM (active) | IC50 [16]: 35.3 µM (active)

COc1ccc(S(=O)(=O)Nc2ccc3c(c2)CC(=O)N([C@@H](C)CO)C[C@@H](C)[C@H](CN(C)Cc2ccc(-c4ccccc4)cc2)O3)cc1
AC50 (Paired box protein Pax-8): 6.29 µM (active) | AC50 [6]: 17.5 µM (active)

O=NN(CC(=O)NNc1ccccc1)CC(=O)NNc1ccccc1
IC50 [1]: 18.3 µM (inactive)

CCOC(=O)N1CCN(C(=O)/C=C/c2ccc(C(C)(C)C)cc2)CC1
IC50 (Beta-galactosidase): > 80 µM (inactive)

CCCN1C[C@H](CSC)C[C@@H]2c3cccc4[nH]cc(c34)C[C@H]21 [PERGOLIDE MESYLATE]
EC50 (Mu-type opioid receptor): 92.5 µM (inactive)

COCCC1CCCCN1C(=O)c1cc(COc2ccc(-n3cncn3)cc2)on1 (stereo not given)
AC50 [7]: 1.22 µM (active) | AC50 (INS1): 3.08 µM (active) | AC50 [8]: 0.57 µM (active) | AC50 [9]: 50.5 µM (active)

Cc1nc(C)c(-c2csc(Nc3ncccc3C)n2)s1
IC50 [10]: 5.89 µM (active) | IC50 [12]: 3.96 µM (active) | IC50 (Caspase-3): 16.4 µM (active) | IC50 [13]: > 100 µM (inactive)

O=C(Nc1cccc(Cl)c1)c1ccc(OC(=S)N2CCOCC2)cc1
IC50 [10]: > 100 µM (inactive) | IC50 [12]: 2.85 µM (active) | IC50 (Caspase-3): 31.4 µM (active) | IC50 [13]: > 100 µM (inactive)

CCC(CO)Oc1cc(NCc2ccncc2)c2ncn(C(C)C)c2c1 (stereo not given)
IC50 [15]: 37.6 µM (active) | IC50 [16]: 24.5 µM (active)
